Where “and” joins values, the source holds several entries; their conditions need not be identical. Equal entries are not always repeated.
Settings: 343.15 K, Liquid, Vibrating tube method

CCCCCC(=O)OCC(COC(=O)CCCCC)(COC(=O)CCCCC)COC(=O)CCCCC [pentaerythritol tetrahexanoate]
Settings	mass density
242.7 kPa	957.2 kg/m3
242.9 kPa	957.3 kg/m3
243.1 kPa	957.3 kg/m3
243.2 kPa	957.3 kg/m3 and 957.2 kg/m3
243.6 kPa	957.2 kg/m3
243.9 kPa	957.3 kg/m3 and 957.1 kg/m3
244.3 kPa	957.3 kg/m3
244.5 kPa	957.2 kg/m3 and 957.3 kg/m3
244.8 kPa	957.3 kg/m3
245 kPa	957.2 kg/m3 and 957.4 kg/m3
245.3 kPa	957.3 kg/m3 and 957.2 kg/m3
245.5 kPa	957.2 kg/m3
245.7 kPa	957.2 kg/m3
245.9 kPa	957.3 kg/m3
246.2 kPa	957.4 kg/m3
246.4 kPa	957.3 kg/m3
246.6 kPa	957.3 kg/m3
249 kPa	957.2 kg/m3
249.5 kPa	957.2 kg/m3
249.9 kPa	957.4 kg/m3
250 kPa	957.2 kg/m3
250.2 kPa	957.1 kg/m3
251.6 kPa	957.3 kg/m3
251.8 kPa	957.3 kg/m3 and 957.2 kg/m3
251.9 kPa	957.3 kg/m3
252.3 kPa	957.3 kg/m3 and 957.2 kg/m3
252.6 kPa	957.1 kg/m3
252.8 kPa	957.2 kg/m3
253.2 kPa	957.2 kg/m3
253.3 kPa	957.3 kg/m3 and 957.2 kg/m3 and 957.4 kg/m3
253.7 kPa	957.2 kg/m3
254 kPa	957.2 kg/m3
254.4 kPa	957.2 kg/m3
254.9 kPa	957.3 kg/m3
255.1 kPa	957.2 kg/m3 and 957.3 kg/m3
255.4 kPa	957.3 kg/m3
255.6 kPa	957.4 kg/m3
256.3 kPa	957.3 kg/m3
256.5 kPa	957.1 kg/m3
256.6 kPa	957.2 kg/m3
256.8 kPa	957.2 kg/m3
257 kPa	957.2 kg/m3
257.3 kPa	957.3 kg/m3
257.5 kPa	957.2 kg/m3
257.7 kPa	957.3 kg/m3
257.9 kPa	957.3 kg/m3
258.2 kPa	957.2 kg/m3
259.2 kPa	957.2 kg/m3
259.6 kPa	957.4 kg/m3
259.9 kPa	957.3 kg/m3
260.1 kPa	957.3 kg/m3
260.4 kPa	957.3 kg/m3
260.6 kPa	957.3 kg/m3
261 kPa	957.3 kg/m3 and 957.2 kg/m3
261.3 kPa	957.2 kg/m3
261.5 kPa	957.2 kg/m3
261.7 kPa	957.2 kg/m3
261.8 kPa	957.3 kg/m3
262.2 kPa	957.3 kg/m3
262.5 kPa	957.4 kg/m3
262.9 kPa	957.4 kg/m3 and 957.2 kg/m3
263 kPa	957.2 kg/m3
263.4 kPa	957.1 kg/m3 and 957.4 kg/m3 and 957.3 kg/m3
263.7 kPa	957.4 kg/m3 and 957.3 kg/m3
266.9 kPa	957.4 kg/m3
270.7 kPa	957.2 kg/m3
271.2 kPa	957.3 kg/m3
273.5 kPa	957.3 kg/m3
273.6 kPa	957.4 kg/m3
274 kPa	957.3 kg/m3
274.3 kPa	957.3 kg/m3
275.2 kPa	957.3 kg/m3
275.6 kPa	957.4 kg/m3
275.7 kPa	957.4 kg/m3
275.9 kPa	957.2 kg/m3
276.1 kPa	957.4 kg/m3
276.4 kPa	957.2 kg/m3
276.6 kPa	957.4 kg/m3
276.9 kPa	957.3 kg/m3
277.3 kPa	957.3 kg/m3
277.6 kPa	957.3 kg/m3
278 kPa	957.3 kg/m3
278.2 kPa	957.2 kg/m3
278.3 kPa	957.2 kg/m3
278.7 kPa	957.3 kg/m3
279 kPa	957.3 kg/m3
279.2 kPa	957.3 kg/m3
279.4 kPa	957.2 kg/m3
279.6 kPa	957.2 kg/m3
285.3 kPa	957.4 kg/m3
285.6 kPa	957.4 kg/m3 and 957.2 kg/m3
286.1 kPa	957.3 kg/m3
286.3 kPa	957.3 kg/m3
286.5 kPa	957.3 kg/m3
286.7 kPa	957.3 kg/m3
287 kPa	957.4 kg/m3
287.2 kPa	957.1 kg/m3
287.4 kPa	957.3 kg/m3
287.5 kPa	957.2 kg/m3
287.9 kPa	957.3 kg/m3
288.2 kPa	957.2 kg/m3
288.6 kPa	957.3 kg/m3
288.7 kPa	957.2 kg/m3
288.9 kPa	957.3 kg/m3
289.1 kPa	957.3 kg/m3
289.4 kPa	957.2 kg/m3
289.8 kPa	957.2 kg/m3 and 957.3 kg/m3
291.2 kPa	957.3 kg/m3
291.4 kPa	957.3 kg/m3
291.5 kPa	957.4 kg/m3 and 957.2 kg/m3
291.9 kPa	957.4 kg/m3
292.2 kPa	957.3 kg/m3
292.4 kPa	957.3 kg/m3 and 957.4 kg/m3
292.7 kPa	957.4 kg/m3
293.1 kPa	957.3 kg/m3
293.4 kPa	957.3 kg/m3
293.6 kPa	957.3 kg/m3
294.6 kPa	957.3 kg/m3
294.7 kPa	957.3 kg/m3
296.4 kPa	957.4 kg/m3 and 957.3 kg/m3
296.6 kPa	957.3 kg/m3
297.1 kPa	957.3 kg/m3
297.3 kPa	957.3 kg/m3
297.6 kPa	957.4 kg/m3
298 kPa	957.4 kg/m3 and 957.3 kg/m3 and 957.2 kg/m3
298.5 kPa	957.3 kg/m3
298.8 kPa	957.4 kg/m3
299 kPa	957.2 kg/m3
299.9 kPa	957.3 kg/m3
305.4 kPa	957.4 kg/m3
305.8 kPa	957.2 kg/m3
306 kPa	957.3 kg/m3
306.3 kPa	957.4 kg/m3
306.8 kPa	957.4 kg/m3 and 957.3 kg/m3
307.5 kPa	957.3 kg/m3
307.9 kPa	957.3 kg/m3
308.2 kPa	957.3 kg/m3
308.4 kPa	957.2 kg/m3
308.7 kPa	957.5 kg/m3 and 957.3 kg/m3
309.1 kPa	957.3 kg/m3
309.3 kPa	957.3 kg/m3
309.4 kPa	957.4 kg/m3
309.8 kPa	957.1 kg/m3
310.6 kPa	957.3 kg/m3
311.2 kPa	957.3 kg/m3

— the NIST ThermoML archive (doi:10.1021/je060271a)
